We go through 4 compounds from ChEMBL document CHEMBL4825672, “Marine Bile Natural Products as Agonists of the TGR5 Receptor” (J Nat Prod, 2021).

Calls of active or inactive are those of the source. No cut-off for these calls is given here.

Series [1] deals with HEK293. In words: Induction of intracellular calcium level in human HEK293 cells at 0.5 to 0.67 mM in absence of extracellular calcium by Fura-2AM dye based fluorometric analysis. Format: functional, cell-based. Particulars: dose 0.5-0.67 mM.
Series [2] addresses T1, G-protein coupled bile acid receptor 1 (Homo sapiens) (UniProt Q8TDU6).
T1 sequence (whole entry): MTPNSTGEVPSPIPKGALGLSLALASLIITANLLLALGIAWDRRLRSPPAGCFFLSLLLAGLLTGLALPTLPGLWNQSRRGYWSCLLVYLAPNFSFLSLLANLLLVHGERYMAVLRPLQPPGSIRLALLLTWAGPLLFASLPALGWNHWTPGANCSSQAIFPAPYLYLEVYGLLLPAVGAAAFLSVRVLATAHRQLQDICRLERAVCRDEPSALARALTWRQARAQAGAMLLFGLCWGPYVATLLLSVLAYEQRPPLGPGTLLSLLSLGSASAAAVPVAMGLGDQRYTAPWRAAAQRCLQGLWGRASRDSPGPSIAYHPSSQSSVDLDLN
In words: Agonist activity at TGR5 (unknown origin) transfected in HEK293 cells assessed as increase in intracellular calcium level in absence of extracellular calcium by Fura-2AM dye based fluorometric analysis. In kind it is functional, cell-based. As to conditions: filed as agonist, dose 0.5-0.67 mM. (Calcium assays in cells follow changes in intracellular calcium, usually with a dye or a luminescent sensor.)

The target of series [3] is T1, G-protein coupled bile acid receptor 1 (Homo sapiens). As to the kind of experiment: Agonist activity at TGR5 (unknown origin) transfected in HEK293 cells assessed as increase in intracellular calcium level at 0.5 to 0.67 mM in presence of Galphaq inhibitor, UBO-QIC and in absence of extracellular calcium by Fura-2AM dye based fluorometric analysis. Format: functional, cell-based. Particulars: dose 0.5-0.67 mM.

Series [4] relates to HEK293. As to the kind of experiment: Cytotoxicity against human HEK293 cells transfected with TGR5 assessed as reduction in cell viability at 1 mM measured after 2.5 hrs by MTS assay. As to conditions: hek293, 2.5 h, 1000 µM. Format: cell-based.
In series [5] the target is T1, G-protein coupled bile acid receptor 1 (Homo sapiens). As to the kind of experiment: Agonist activity at TGR5 (unknown origin) transfected in HEK293 cells assessed as increase in intracellular calcium level at 1 mM in presence of Galphaq inhibitor, UBO-QIC and in absence of extracellular calcium by Fura-2AM dye based fluorometric analysis. In kind it is functional, cell-based.

In series [6] the test system is HEK293. As to the kind of experiment: Induction of intracellular calcium level in human HEK293 cells at 1 mM in absence of extracellular calcium by Fura-2AM dye based fluorometric analysis. In kind it is functional, cell-based.
Series [7] concerns HEK293. In words: Cytotoxicity against human HEK293 cells transfected with TGR5 assessed as reduction in cell viability at 0.67 mM measured after 2.5 hrs by MTS assay. Format: cell-based. As to conditions: hek293, 2.5 h, 670 µM. In general terms: Tetrazolium dyes change colour on reduction, which living cells bring about.
Series [8] deals with T1, G-protein coupled bile acid receptor 1 (Homo sapiens). As to the kind of experiment: Agonist activity at TGR5 (unknown origin) transfected in HEK293 cells assessed as increase in intracellular calcium level at 0.33 mM in presence of Galphaq inhibitor, UBO-QIC and in absence of extracellular calcium by Fura-2AM dye based fluorometric analysis. Format: functional, cell-based.

Series [9] shares this target. In words: Agonist activity at TGR5 (unknown origin) transfected in HEK293 cells assessed as increase in intracellular calcium level at 0.1 mM in presence of Galphaq inhibitor, UBO-QIC and in absence of extracellular calcium by Fura-2AM dye based fluorometric analysis. In kind it is functional, cell-based. Particulars: filed as agonist.
Series [10] relates to HEK293. In words: Cytotoxicity against human HEK293 cells transfected with TGR5 assessed as reduction in cell viability at 0.33 to 0.5 mM measured after 2.5 hrs by MTS assay. Particulars: hek293, 2.5 h, 500 µM, dose 0.33-0.5 mM. Format: cell-based.
Series [11] relates to HEK293. In words: Induction of intracellular calcium level in human HEK293 cells at 0.1 to 0.33 mM in absence of extracellular calcium by Fura-2AM dye based fluorometric analysis. As to conditions: dose 0.1-0.33 mM. Format: functional, cell-based.
Series [12] relates to HEK293. In words: Induction of intracellular calcium level in human HEK293 cells at 0.33 mM in presence of Galphaq inhibitor, UBO-QIC and in absence of extracellular calcium by Fura-2AM dye based fluorometric analysis. Format: functional, cell-based.
Series [13] has as its target T1, G-protein coupled bile acid receptor 1 (Homo sapiens). As to the kind of experiment: Agonist activity at TGR5 (unknown origin) transfected in HEK293 cells assessed as increase in intracellular calcium level at 0.1 to 0.33 mM in absence of extracellular calcium by Fura-2AM dye based fluorometric analysis. Particulars: filed as agonist, dose 0.1-0.33 mM. Format: functional, cell-based.

The subject of series [14] is HEK293. As to the kind of experiment: Induction of intracellular calcium level in human HEK293 cells at 0.1 mM in presence of Galphaq inhibitor, UBO-QIC and in absence of extracellular calcium by Fura-2AM dye based fluorometric analysis. Format: functional, cell-based.

As for `C[C@H](CC[C@H](O)C(CO)CO)[C@H]1CC[C@H]2[C@@H]3[C@H](O)C[C@@H]4C[C@H](O)CC[C@]4(C)[C@H]3C[C@H](O)[C@]12C`, the outcome in [1] and in series [3] was inactive. The Activity entry is “Dose-Dependent Effect” in series [2] and “Toxic” in [4].

For `C[C@H](CC[C@H](O)C(CO)COS(=O)(=O)O)[C@H]1CC[C@H]2[C@@H]3[C@H](O)C[C@@H]4C[C@H](O)CC[C@]4(C)[C@H]3C[C@H](O)[C@]12C` (some centres not stated), the result in series [5] and in series [6] was inactive. Further, the Activity entry in series [4] is recorded as “Non-Toxic”.

Regarding `C[C@H](CCC(=O)O)[C@H]1CC[C@H]2[C@@H]3CC[C@@H]4C[C@H](O)CC[C@]4(C)[C@H]3C[C@H](O)[C@]12C` [DEOXYCHOLIC ACID], the Activity entry in series [7] was “Toxic”; in series [10], “Toxic”; in [11], “Dose-Dependent Effect”; in [13], “Dose-Dependent Effect”. The result in [8] and in [12] was inactive. The result in series [9] and in series [14] was Active.

Turning to `C[C@H](CCC(=O)O)[C@H]1CC[C@H]2[C@@H]3[C@@H](O)C[C@@H]4C[C@H](O)CC[C@]4(C)[C@H]3CC[C@]12C` [URSODIOL], the result in [6] was inactive. In addition, the Activity result in [4] was “Non-Toxic”.
